Data: ChEMBL document CHEMBL5584228, “Novel saturated 1,2,4-trioxanes and their antimalarial activity against multidrug resistant Plasmodium yoelii nigeriensis in Swiss mice model via oral route” (2024)
Calls of active or inactive are those of the source. The calls are words filed in the database; no cut-off is given here.

Columns and labels:
[1] = tested on: Plasmodium yoelii nigeriensis; experiment: Antimalarial activity against multi-drug resistant Plasmodium yoelii nigeriensis infected in swiss mouse model assessed as suppression of parasitemia at 96 mg/kg, po administered for 4 days relative to control; format: functional; details: time 4 day
[2] = tested on: Plasmodium yoelii nigeriensis; experiment: Antimalarial activity against multi-drug resistant Plasmodium yoelii nigeriensis infected in swiss mouse model at 96 mg/kg, po administered for 4 days and measured within 6 to 8 days; format: functional, organism-based; details: time 6-8 day
[3] = tested on: Plasmodium yoelii nigeriensis; experiment: Antimalarial activity against multi-drug resistant Plasmodium yoelii nigeriensis infected in swiss mouse model assessed as suppression of parasitemia at 48 mg/kg, po administered for 4 days relative to control; format: functional; details: time 4 day
[4] = tested on: Plasmodium yoelii nigeriensis; experiment: Antimalarial activity against multi-drug resistant Plasmodium yoelii nigeriensis infected in swiss mouse model at 48 mg/kg, po administered for 4 days and measured within 6 to 8 days; format: functional, organism-based; details: time 6-8 day
[5] = tested on: Plasmodium yoelii nigeriensis; experiment: Antimalarial activity against multi-drug resistant Plasmodium yoelii nigeriensis infected in swiss mouse model assessed as suppression of parasitemia at 24 mg/kg, po administered for 4 days relative to control; format: functional; details: time 4 day
[6] = tested on: Plasmodium yoelii nigeriensis; experiment: Antimalarial activity against multi-drug resistant Plasmodium yoelii nigeriensis infected in swiss mouse model assessed as suppression of parasitemia at 12 mg/kg, po administered for 4 days relative to control; format: functional; details: time 4 day
[7] = tested on: Plasmodium yoelii nigeriensis; experiment: Antimalarial activity against multi-drug resistant Plasmodium yoelii nigeriensis infected in swiss mouse model at 24 mg/kg, po administered for 4 days and measured within 6 to 8 days; format: functional, organism-based; details: time 6-8 day
[8] = tested on: Plasmodium yoelii nigeriensis; experiment: Antimalarial activity against multi-drug resistant Plasmodium yoelii nigeriensis infected in swiss mouse model assessed as suppression of parasitemia at 6 mg/kg, po administered for 4 days relative to control; format: functional; details: time 4 day
[9] = tested on: Plasmodium yoelii nigeriensis; experiment: Antimalarial activity against multi-drug resistant Plasmodium yoelii nigeriensis infected in swiss mouse model assessed as animal survival at 12 to 48 mg/kg, po administered for 4 days and measured after 28 days; format: functional; details: dose 12-48 mg/kg, time 28 day
[10] = tested on: Plasmodium yoelii nigeriensis; experiment: Antimalarial activity against multi-drug resistant Plasmodium yoelii nigeriensis infected in swiss mouse model at 12 mg/kg, po administered for 4 days and measured within 6 to 8 days; format: functional, organism-based; details: time 6-8 day

SMILES	Activity [1] [%]	Activity [2]	Activity [3] [%]	other results
C[C@@H](c1ccc(Oc2ccc3ccccc3c2)cc1)C1COC2(OO1)C1CC3CC(C1)CC2C3 (stereo partly drawn)	100	inactive		
C=C(c1ccc(Oc2ccc(-c3ccccc3)cc2)cc1)C1COC2(CCCC2)OO1 (stereo not drawn)	100	Active	100	Activity [4]: inactive
C=C(c1ccc(Oc2cccc3ccccc23)cc1)C1COC2(OO1)C1CC3CC(C1)CC2C3 (stereo not drawn)	93.15	inactive		
C[C@@H](c1ccc(Oc2ccc(-c3ccccc3)cc2)cc1)C1COC2(CCCCC2)OO1 (stereo partly drawn)	100	inactive		
C[C@@H](c1ccc(Oc2cccc3ccccc23)cc1)C1COC2(CCCCC2)OO1 (stereo partly drawn)	100	inactive		
CCO[C@H]1O[C@@H]2O[C@@]3(C)CC[C@H]4[C@H](C)CC[C@@H]([C@H]1C)[C@@]24OO3 [ARTEMOTIL]			100	Activity [5]: 100%; Activity [4]: Active
C=C(c1ccc(Oc2ccc(-c3ccccc3)cc2)cc1)C1COC2(CCCCC2)OO1 (stereo not drawn)	84.39	inactive		
C[C@H](c1ccc(Oc2ccc(-c3ccccc3)cc2)cc1)C1COC2(CCCCC2)OO1 (stereo partly drawn)	100			
C[C@H](c1ccc(Oc2ccc(-c3ccccc3)cc2)cc1)C1COC2(CCCC2)OO1 (stereo partly drawn)			100	Activity [5]: 100%; Activity [6]: 60%
C[C@@H](c1ccc(Oc2ccccc2)cc1)C1COC2(CCCCC2)OO1 (stereo partly drawn)	100	inactive		
C=C(c1ccc(Oc2ccccc2)cc1)C1COC2(CCCC2)OO1 (stereo not drawn)	100			
C[C@H](c1ccc(Oc2ccc(-c3ccccc3)cc2)cc1)C1COC2(OO1)C1CC3CC(C1)CC2C3 (stereo partly drawn)	100	Active	100	
C[C@@H](c1ccc(Oc2ccc3ccccc3c2)cc1)C1COC2(CCCC2)OO1 (stereo partly drawn)	100	Active	100	
C[C@H](c1ccc(Oc2cccc3ccccc23)cc1)C1COC2(CCCCC2)OO1 (stereo partly drawn)	100			
C[C@@H](c1ccc(Oc2ccc(-c3ccccc3)cc2)cc1)C1COC2(CCCC2)OO1 (stereo partly drawn)	100	inactive		
C[C@H](c1ccc(Oc2cccc3ccccc23)cc1)C1COC2(CCCC2)OO1 (stereo partly drawn)			100	Activity [5]: 100%; Activity [6]: 80%
C[C@@H](c1ccc(Oc2cccc3ccccc23)cc1)C1COC2(OO1)C1CC3CC(C1)CC2C3 (stereo partly drawn)	70	inactive		

SMILES	Activity [1] [%]	Activity [2]	Activity [3] [%]	other results
C=C(c1ccc(Oc2ccc3ccccc3c2)cc1)C1COC2(OO1)C1CC3CC(C1)CC2C3 (stereo not drawn)	100			
C[C@H](c1ccc(Oc2ccccc2)cc1)C1COC2(CCCCC2)OO1 (stereo partly drawn)	100	Active	80	
C=C(c1ccc(Oc2ccccc2)cc1)C1COC2(OO1)C1CC3CC(C1)CC2C3 (stereo not drawn)	100			
C=C(c1ccc(Oc2ccccc2)cc1)C1COC2(CCCCC2)OO1 (stereo not drawn)	100			
C[C@H](c1ccc(Oc2ccccc2)cc1)C1COC2(CCCC2)OO1 (stereo partly drawn)	100	Active	60	
C[C@@H](c1ccc(Oc2ccccc2)cc1)C1COC2(CCCC2)OO1 (stereo partly drawn)	80	inactive		
C=C(c1ccc(Oc2cccc3ccccc23)cc1)C1COC2(CCCCC2)OO1 (stereo not drawn)	92.81	inactive		
C[C@H](c1ccc(Oc2ccccc2)cc1)C1COC2(OO1)C1CC3CC(C1)CC2C3 (stereo partly drawn)	100	Active	100	
C[C@@H](c1ccc(Oc2cccc3ccccc23)cc1)C1COC2(CCCC2)OO1 (stereo partly drawn)	100	inactive		
C=C(c1ccc(Oc2cccc3ccccc23)cc1)C1COC2(CCCC2)OO1 (stereo not drawn)	100	Active	100	Activity [5]: 100%; Activity [4]: Active; Activity [7]: inactive
C[C@@H](c1ccc(Oc2ccccc2)cc1)C1COC2(OO1)C1CC3CC(C1)CC2C3 (stereo partly drawn)	100	inactive		
C[C@@H](c1ccc(Oc2ccc(-c3ccccc3)cc2)cc1)C1COC2(OO1)C1CC3CC(C1)CC2C3 (stereo partly drawn)	90	inactive		
C=C(c1ccc(Oc2ccc(-c3ccccc3)cc2)cc1)C1COC2(OO1)C1CC3CC(C1)CC2C3 (stereo not drawn)	100			
C=C(c1ccc(Oc2ccc3ccccc3c2)cc1)C1COC2(CCCC2)OO1 (stereo not drawn)	100	Active	100	Activity [5]: 100%; Activity [4]: Active; Activity [7]: inactive
C[C@H](c1ccc(Oc2ccc3ccccc3c2)cc1)C1COC2(CCCC2)OO1 (stereo partly drawn)			100	Activity [5]: 100%; Activity [6]: 100%; Activity [8]: 60%; Survival [9]: >28 days; Activity [10]: Active
C[C@H](c1ccc(Oc2ccc3ccccc3c2)cc1)C1COC2(OO1)C1CC3CC(C1)CC2C3 (stereo partly drawn)	100	Active	60	
C[C@H](c1ccc(Oc2cccc3ccccc23)cc1)C1COC2(OO1)C1CC3CC(C1)CC2C3 (stereo partly drawn)	100			
